Assay results from patent US6911442B1, “Quinoline derivatives as antibacterials” (SmithKline Beecham p.l.c., priority 1999, dated 2005).
Read-outs that look alike come from different tables or passages of the source.

Test system: S. aureus Oxford, S. aureus WCUH29, S. aureus Carter 37, E. faecalis I, M. catarrhalis Ravasio, S. pneumoniae R6
Assay: MIC of test compounds against various organisms
Type: cell-based
Conditions: against one or more of S. aureus Oxford
Protocol: The MIC (μg/ml) of test compounds against various organisms was determined: S. aureus Oxford, S. aureus WCUH29, S. aureus Carter 37, E. faecalis I, M. catarrhalis Ravasio, S. pneumoniae R6.

MIC (read-out: MIC) [µg/mL] | MIC | Compound
≤ 16 | – | CCCCCCCN1CCN(C[C@H](O)c2ccnc3ccc(OC)cc23)[C@H](CC(=O)O)C1.O=C(O)C(F)(F)F.O=C(O)C(F)(F)F.O=C(O)C(F)(F)F [Example 11, [3R]-3-Carboxymethyl-1-heptyl-4-[2-(R)-hydroxy-2-(6-methoxyquinolin-4-yl)ethyl]piperazine tris(trifluoroacetate)]
– | less than or equal to 1 μg/ml | CCCCCCCN1CCN(CC(O)c2ccnc3ccc(OC)cc23)[C@@H](CCO)C1.O=C(O)C(=O)O.O=C(O)C(=O)O (stereo partly drawn) [Example 12, [3S]-1-Heptyl-3-[2-hydroxyetbyl]-4-[2-(R,S)hydroxy-2-(6-methoxyquinolin-4-yl)ethyl]piperazine dioxalate]
≤ 16 | – | COc1ccc2nccc([C@@H](O)CN3CCN(CCCOc4ccccc4)CC3)c2c1 [Example 33, 1-(3-phenoxypropyl)-4-[2-(R)-hydroxy-2-(6-methoxyquinolin-4-yl)ethyl]piperazine]
